Results on 16 compounds are retold here after PubChem BioAssay AID248 (DTP/NCI, 2004).

The assay concerns L1210 leukemia ip in BDF1 mice, survival T/C. As to the kind of experiment: NCI In Vivo Anticancer Drug Screen. Data for tumor model L1210 Leukemia (intraperitoneal) in B6D2F1 (BDF1) mice. The conditions noted are these: endpoint: mean survival time, higher = longer survival. In short, it runs like this: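 Survival endpoint. Drug-treated group vs vehicle group, expressed as T divided by C. Tumor passaged by transplantation.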

[1] abbreviates: dose: 50.0 mg/kg/injection, schedule: Q01DX001 (ip), vehicle: carboxymethylcellulose (CMC).
Where [2] appears, read: dose: 100.0 mg/kg/injection, schedule: Q01DX001 (ip), vehicle: carboxymethylcellulose (CMC).
The mark [3] stands for this setting: dose: 200.0 mg/kg/injection, schedule: Q01DX001 (ip), vehicle: carboxymethylcellulose (CMC).
Where [4] appears, read: dose: 100.0 mg/kg/injection, schedule: Q01DX001 (ip), vehicle: saline.
[5] abbreviates: dose: 200.0 mg/kg/injection, schedule: Q01DX001 (ip), vehicle: saline.
Where [6] appears, read: dose: 400.0 mg/kg/injection, schedule: Q01DX001 (ip), vehicle: saline.
Where [7] appears, read: dose: 10.0 mg/kg/injection, schedule: Q01DX001 (ip), vehicle: saline.
Setting [8] is: dose: 50.0 mg/kg/injection, schedule: Q01DX001 (ip), vehicle: saline.

Several values for one entry are separate records, joined by “and”; a condition that tells them apart may be missing. Equal values may be shown once. Toxic doses and inconclusive results are not listed. Numbered stars: 1 amine (or outer) side, 2 acyl side, 3 side chain; on linkers, the order of the positions; unused ones are H or OH. Square brackets hold non-standard residues; d marks the D form. Peptide text beside a SMILES is read from it. γGlu = O=C(O)[CH](CCC(=O)[*:2])N[*:1]; Hpg = N[CH](C(=O)O)c1ccc(O)cc1

Turning to `CCCCCCCCCC(C)(O)C#CC(C)(O)CCCCCCCCC` (configuration not stated), the T/C was 93 % of control under setting [1]; 91 % of control (dose: 50.0 mg/kg/injection, schedule: Q04DX003 (ip), vehicle: carboxymethylcellulose (CMC)); 95 % of control under setting [2]; 89 % of control (dose: 100.0 mg/kg/injection, schedule: Q04DX003 (ip), vehicle: carboxymethylcellulose (CMC)); 91 % of control under setting [3]; 89 % of control (dose: 200.0 mg/kg/injection, schedule: Q04DX003 (ip), vehicle: carboxymethylcellulose (CMC)). The T/C (dose: 400.0 mg/kg/injection, schedule: Q01DX001 (ip), vehicle: carboxymethylcellulose (CMC)) was 100 % of control.
With `COC1(c2ccco2)OC1(C)C` (configuration not stated), the T/C reads like this: (dose: 5.0 mg/kg/injection, schedule: Q01DX009 (ip), vehicle: saline with Tween-80) 94 % of control; (dose: 5.0 mg/kg/injection, schedule: Q04DX003 (ip), vehicle: saline with Tween-80) 96 % of control; (dose: 10.0 mg/kg/injection, schedule: Q01DX009 (ip), vehicle: saline with Tween-80) 97 % of control; (dose: 10.0 mg/kg/injection, schedule: Q04DX003 (ip), vehicle: saline with Tween-80) 102 % of control; (dose: 20.0 mg/kg/injection, schedule: Q01DX009 (ip), vehicle: saline with Tween-80) 116 % of control; (dose: 20.0 mg/kg/injection, schedule: Q04DX003 (ip), vehicle: saline with Tween-80) 98 % of control.
In the case of `CCCCCCOC(=O)C1OC1(C)c1ccccc1` (configuration not stated), the T/C runs as follows: (dose: 100.0 mg/kg/injection, schedule: Q04DX002 (ip), vehicle: saline) 108 % of control; (dose: 200.0 mg/kg/injection, schedule: Q04DX002 (ip), vehicle: saline) 112 % of control; (dose: 400.0 mg/kg/injection, schedule: Q04DX002 (ip), vehicle: saline) 93 % of control.
As for `CC(NC(=O)CCC(NC(=O)C(Cc1ccc(O)cc1)NC(=O)CNC(=O)C(C)NC(=O)CCC(NC(=O)C(N)c1ccc(O)cc1)C(=O)O)C(=O)O)C(=O)NCC(=O)NCC(=O)O` (configuration not stated) (H-[Hpg][γGlu]AGY[γGlu]AGG-OH; configuration not given here), the T/C reads like this: under setting [4], 97 % of control; under setting [5], 98 % of control; under setting [6], 97 % of control.
On to `CC(CCF)C(N)C(=O)O` (configuration not stated), for which the T/C was 98 % of control (dose: 3.0 mg/kg/injection, schedule: Q01DX009 (ip), vehicle: saline); 100 % of control (dose: 6.0 mg/kg/injection, schedule: Q01DX009 (ip), vehicle: saline); 91 % of control under setting [7]; 102 % of control (dose: 12.0 mg/kg/injection, schedule: Q01DX009 (ip), vehicle: saline); 100 % of control (dose: 12.5 mg/kg/injection, schedule: Q01DX009 (ip), vehicle: saline); 95 % of control (dose: 19.0 mg/kg/injection, schedule: Q01DX001 (ip), vehicle: saline). Moreover, the T/C (dose: 37.5 mg/kg/injection, schedule: Q01DX001 (ip), vehicle: saline) was 113 % of control and the T/C (dose: 38.0 mg/kg/injection, schedule: Q01DX001 (ip), vehicle: saline) was 91 % of control.
In the case of `CCCCCCCCCCCCC[As](=O)(O)CCCCCCCCCCCCC`, the T/C is 95 % of control under setting [8], 103 % of control under setting [4], 101 % of control under setting [5] and 91 % of control under setting [6].
Turning to `CCN(CC)CCCN(C)C(=O)C(O)(c1ccccc1)c1ccccc1`, the T/C (dose: 25.0 mg/kg/injection, schedule: Q01DX001 (ip), vehicle: saline) is 102 % of control; the T/C under setting [8] is 97 % of control; the T/C under setting [4] was 102 % of control.
For `C[N+](C)(C)CCCCCC[Si](C)(C)C`, the T/C reads like this: (dose: 5.0 mg/kg/injection, schedule: Q01DX001 (ip), vehicle: saline) 110 % of control; under setting [7], 108 % of control; (dose: 20.0 mg/kg/injection, schedule: Q01DX001 (ip), vehicle: saline) 104 % of control; (dose: 40.0 mg/kg/injection, schedule: Q01DX001 (ip), vehicle: saline) 108 % of control.
Take `CCC(Cl)COP(=O)(OCC(Cl)CC)C(OP(=S)(OCC(Cl)CC)OCC(Cl)CC)C(C)C` (configuration not stated): the T/C was 104 % of control (dose: 50.0 mg/kg/injection, schedule: Q04DX002 (sc), vehicle: olive oil, sesame oil, peanut oil); 118 % of control (dose: 100.0 mg/kg/injection, schedule: Q04DX002 (sc), vehicle: olive oil, sesame oil, peanut oil); 110 % of control (dose: 200.0 mg/kg/injection, schedule: Q04DX002 (sc), vehicle: olive oil, sesame oil, peanut oil).
For `O=C(Cc1cccc2ccccc12)OCCOCCCl`, the T/C is, setting by setting: (dose: 100.0 mg/kg/injection, schedule: Q04DX002 (ip), vehicle: saline with Tween-80) 101 % of control; (dose: 200.0 mg/kg/injection, schedule: Q04DX002 (ip), vehicle: saline with Tween-80) 104 % of control; (dose: 400.0 mg/kg/injection, schedule: Q04DX002 (ip), vehicle: saline with Tween-80) 117 % of control.
For the compound `O=c1[nH]nc(CCc2ccc([N+](=O)[O-])cc2)o1`, the T/C runs as follows: (dose: 100.0 mg/kg/injection, schedule: Q01DX009 (ip), vehicle: saline) 93 % of control; (dose: 200.0 mg/kg/injection, schedule: Q01DX009 (ip), vehicle: saline) 94 % of control; (dose: 400.0 mg/kg/injection, schedule: Q01DX009 (ip), vehicle: saline) 104 % of control.
`CCCC[P+](C)(CCCC)CCCC`: the T/C was 98 % of control (dose: 8.8 mg/kg/injection, schedule: Q01DX Z (ip), vehicle: saline); 93 % of control (dose: 13.3 mg/kg/injection, schedule: Q01DX Z (ip), vehicle: saline); 86 % of control (dose: 20.0 mg/kg/injection, schedule: Q01DX Z (ip), vehicle: saline).
Take `Clc1ccc(N=Cc2ccccc2Cl)cc1`: the T/C (dose: 100.0 mg/kg/injection, schedule: Q01DX009 (ip), vehicle: saline with Tween-80) was 94 % of control; the T/C (dose: 200.0 mg/kg/injection, schedule: Q01DX009 (ip), vehicle: saline with Tween-80) was 92 % of control; the T/C (dose: 400.0 mg/kg/injection, schedule: Q01DX009 (ip), vehicle: saline with Tween-80) is 89 % of control.
`Cc1ccc(NC(=O)OCC2CC3C=CC2C3)cc1NC(=O)OCC1CC2C=CC1C2` (configuration not stated): the T/C reads like this: (dose: 100.0 mg/kg/injection, schedule: Q01DX009 (ip), vehicle: Klucel (hydroxypropylcellulose) (HPC)) 87 % of control; (dose: 200.0 mg/kg/injection, schedule: Q01DX009 (ip), vehicle: Klucel (hydroxypropylcellulose) (HPC)) 90 % of control; (dose: 400.0 mg/kg/injection, schedule: Q01DX009 (ip), vehicle: Klucel (hydroxypropylcellulose) (HPC)) 90 % of control.
Turning to `COc1cc(C=Nc2cc(Cl)cc(Cl)c2)ccc1N(CCCl)CCCl`, the T/C is 114 % of control and 116 % of control (dose: 10.5 mg/kg/injection, schedule: Q01DX015 (ip), vehicle: carboxymethylcellulose (CMC)); 113 % of control and 117 % of control (dose: 18.0 mg/kg/injection, schedule: Q01DX015 (ip), vehicle: carboxymethylcellulose (CMC)); 123 % of control (dose: 30.0 mg/kg/injection, schedule: Q01DX015 (ip), vehicle: carboxymethylcellulose (CMC)); 123 % of control under setting [1]; 105 % of control (dose: 50.0 mg/kg/injection, schedule: Q01DX001 (ip), vehicle: other); 122 % of control (dose: 50.0 mg/kg/injection, schedule: Q01DX015 (ip), vehicle: carboxymethylcellulose (CMC)). The T/C under setting [2] is 157 % of control; the T/C (dose: 100.0 mg/kg/injection, schedule: Q01DX001 (ip), vehicle: other) was 118 % of control; the T/C (dose: 150.0 mg/kg/injection, schedule: Q01DX001 (ip), vehicle: carboxymethylcellulose (CMC)) was 116 % of control; the T/C under setting [3] was 123 % of control; the T/C (dose: 200.0 mg/kg/injection, schedule: Q01DX001 (ip), vehicle: other) was 123 % of control; the T/C (dose: 400.0 mg/kg/injection, schedule: Q01DX001 (ip), vehicle: other) is 111 % of control. In addition, for the setting “dose: 800.0 mg/kg/injection, schedule: Q01DX001 (ip), vehicle: other”, the T/C was 120 % of control.
For `C/C(=C/C=C(c1ccccc1)c1ccccc1)C1CCC2C3CCC4CC5CCC4(C)C3(O5)C(=O)CC12C` (configuration not stated), the T/C by setting is: (dose: 100.0 mg/kg/injection, schedule: Q04DX003 (sc), vehicle: steriod suspending solution) 96 % of control; (dose: 200.0 mg/kg/injection, schedule: Q04DX003 (sc), vehicle: steriod suspending solution) 93 % of control; (dose: 400.0 mg/kg/injection, schedule: Q04DX003 (sc), vehicle: steriod suspending solution) 93 % of control.
